Source: BindingDB's records for doi:10.1074/jbc.M109.089946 (Merck Research Laboratories, 2010)

Columns and labels:
[1] = target: T1, 3-phosphoinositide-dependent protein kinase 1 (Homo sapiens, UniProt O15530); assay: TR-Fret Assay
T1 sequence (O15530 whole entry): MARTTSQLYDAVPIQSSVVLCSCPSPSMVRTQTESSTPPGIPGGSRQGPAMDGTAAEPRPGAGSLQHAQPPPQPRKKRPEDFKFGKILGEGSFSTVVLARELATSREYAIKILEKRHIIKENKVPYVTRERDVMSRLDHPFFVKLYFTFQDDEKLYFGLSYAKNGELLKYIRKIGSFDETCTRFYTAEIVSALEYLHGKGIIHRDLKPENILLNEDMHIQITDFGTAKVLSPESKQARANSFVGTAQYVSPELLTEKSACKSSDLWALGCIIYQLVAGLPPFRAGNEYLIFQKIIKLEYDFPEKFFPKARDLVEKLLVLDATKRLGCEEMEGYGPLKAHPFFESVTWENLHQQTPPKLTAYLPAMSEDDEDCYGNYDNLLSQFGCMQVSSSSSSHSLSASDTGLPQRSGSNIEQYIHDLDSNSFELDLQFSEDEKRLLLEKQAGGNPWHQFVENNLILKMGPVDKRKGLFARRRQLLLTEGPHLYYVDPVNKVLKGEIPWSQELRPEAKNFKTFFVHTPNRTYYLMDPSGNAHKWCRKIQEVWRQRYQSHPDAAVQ
Description: 1536-Well TR-Fret uHTS assay PDK1-tide1 peptide substrate.

[2] = target: 3-phosphoinositide-dependent protein kinase 1 (Homo sapiens) (UniProt O15530); assay: 384-Well TR-Fret assay using AKT-tide peptide substrate.

Row | SMILES | IC50 [1] | IC50 [2]
1 | CC(C)(C)c1nc2c3ccc(F)cc3c3c(=O)[nH]ccc3c2[nH]1 [Jak Inhibitor 1] | 20 nM | 28 nM
2 | Cc1[nH]nc2c1c(=O)n(CCCN)c1ccc(Br)cc21 [Compound # 1] | 11 nM | 14 nM
3 | CCCCCNC(=O)O[C@@H]1CC[C@@H]2[C@@H](C(=O)Nc3ccc(N(C)C)cc3)C[C@H]1N2CCC(C)C [Alkaloid 2] | 18000 nM | > 30000 nM
